66 compounds from US11613538B2, “Method of inhibiting or reducing a viral infection” (PTC Therapeutics, Inc., priority 2009, dated 2023) can be followed below.

pEC50: −log10 of the molar value.

The test system of this assay is hypoxia-induced VEGF production in HeLa cells. The assay can be described thus: cells. The class given is cell-based, human. To be noted: Homo sapiens, HeLa.
`CC(=O)N1CCN(CCCOc2cccc(C3c4[nH]c5ccc(Cl)cc5c4CCN3C(=O)Oc3ccc(F)cc3)c2)CC1` (stereo not drawn) [Compound 1364] had a pEC50 of 6.70 to 7.40.
On to `C=CCOc1ccc([C@H]2c3[nH]c4ccc(Cl)cc4c3CCN2C(=O)OCC2CC2)cc1` [Compound 1365], for which the pEC50 was more than 8.10.
The figure for `C=CCOc1ccc([C@H]2c3[nH]c4ccc(Cl)cc4c3CCN2C(=O)OCC2CCC2)cc1` [Compound 1366] is more than 8.10; for `O=C(OCC1CCC1)N1CCc2c([nH]c3ccc(Cl)cc23)[C@@H]1c1ccc(OCCCO)cc1` [Compound 1368] it is more than 8.10; for `O=C(OCC1CC1)N1CCc2c([nH]c3ccc(Cl)cc23)[C@@H]1c1ccc(O)cc1` [Compound 1369] it is 7.40 to 8.10.
Under `O=C(OCC1CCC1)N1CCc2c([nH]c3ccc(Cl)cc23)[C@@H]1c1ccc(O)cc1` [Compound 1370] stands 7.40 to 8.10.
The figure for `COc1ccc([C@H]2c3[nH]c4ccc(Cl)cc4c3CCN2C(=O)OCC2CC2)cc1` [Compound 1371] is 7.40 to 8.10; for `COc1ccc([C@H]2c3[nH]c4ccc(Cl)cc4c3CCN2C(=O)OCC2CCC2)cc1` [Compound 1372] it is more than 8.10.
Compound `O=C(OCC1CC1)N1CCc2c([nH]c3ccc(Cl)cc23)[C@@H]1c1ccc(OCC[C@H](O)CO)cc1` [Compound 1373] gave a pEC50 of more than 8.10.
As to `O=C(OCC1CCC1)N1CCc2c([nH]c3ccc(Cl)cc23)[C@@H]1c1ccc(OCC[C@H](O)CO)cc1` [Compound 1374], the pEC50 is more than 8.10.
The figure for `CC(CO)(CO)COc1ccc([C@H]2c3[nH]c4ccc(Cl)cc4c3CCN2C(=O)OCC2CC2)cc1` [Compound 1375] is more than 8.10; for `CC(CO)(CO)COc1ccc([C@H]2c3[nH]c4ccc(Cl)cc4c3CCN2C(=O)OCC2CCC2)cc1` [Compound 1376] it is more than 8.10; for `O=C(OCC1CC1)N1CCc2c([nH]c3ccc(Cl)cc23)[C@@H]1c1ccc(OC[C@H](O)CO)cc1` [Compound 1377] it is more than 8.10.
Under `CC1(COC(=O)N2CCc3c([nH]c4ccc(Cl)cc34)[C@@H]2c2ccc(OC[C@H](O)CO)cc2)CC1` [Compound 1378] stands more than 8.10; under `O=C(OCC1CCC1)N1CCc2c([nH]c3ccc(Cl)cc23)[C@@H]1c1ccc(OC[C@H](O)CO)cc1` [Compound 1379], more than 8.10; under `O=C(OCC1CC1)N1CCc2c([nH]c3ccc(Cl)cc23)[C@@H]1c1ccc(OC[C@@H](O)CO)cc1` [Compound 1380], more than 8.10.
Under `CC1(COC(=O)N2CCc3c([nH]c4ccc(Cl)cc34)[C@@H]2c2ccc(OC[C@@H](O)CO)cc2)CC1` [Compound 1381] stands more than 8.10.
The compound `O=C(OCC1CCC1)N1CCc2c([nH]c3ccc(Cl)cc23)[C@@H]1c1ccc(OC[C@@H](O)CO)cc1` [Compound 1382] gave a pEC50 of more than 8.10.
`CCC(CO)(CO)COc1ccc([C@H]2c3[nH]c4ccc(Cl)cc4c3CCN2C(=O)OCC2CC2)cc1` [Compound 1383]: the pEC50 was more than 8.10.
Under `CCC(CO)(CO)COc1ccc([C@H]2c3[nH]c4ccc(Cl)cc4c3CCN2C(=O)OCC2(C)CC2)cc1` [Compound 1384] stands more than 8.10; under `CCC(CO)(CO)COc1ccc([C@H]2c3[nH]c4ccc(Cl)cc4c3CCN2C(=O)OCC2CCC2)cc1` [Compound 1385], more than 8.10.
The figure for `O=C(OCC1CCC1)N1CCc2c([nH]c3ccc(Cl)cc23)[C@@H]1c1ccc(OCC2(CO)COCOC2)cc1` [Compound 1386] is 7.40 to 8.10; for `CCOC(=O)CNC(=O)c1cccc(C2c3[nH]c4ccc(Cl)cc4c3CCN2C(=O)OCC)c1` (stereo not drawn) [Compound 1387] it is 6.70 to 7.40.
`CCOC(=O)N1CCc2c([nH]c3ccc(Cl)cc23)C1c1cccc(C(=O)NCC(=O)O)c1` (stereo not drawn) [Compound 1388] had a pEC50 of less than 6.00.
Under `CCOC(=O)N1CCc2c([nH]c3ccc(Cl)cc23)C1c1cccc(C(=O)N(C)CC(=O)O)c1` (stereo not drawn) [Compound 1389] stands less than 6.00; under `CCOC(=O)N1CCc2c([nH]c3ccc(Br)cc23)C1c1ccc(C(=O)N(C)CC(=O)O)cc1` (stereo not drawn) [Compound 1390], less than 6.00.
Consider `CCOC(=O)N1CCc2c([nH]c3ccc(Cl)cc23)C1c1ccc(OCCCOCCOC)cc1` (stereo not drawn) [Compound 1396], for which the pEC50 was less than 6.00.
`[H]/N=C(\N)NCCOc1ccc(C2c3[nH]c4ccc(Cl)cc4c3CCN2C(=O)OCC)cc1` (stereo not drawn) [Compound 1397] had a pEC50 of 6.70 to 7.40.
Take `CCOC(=O)N1CCc2c([nH]c3ccc(Cl)cc23)C1c1ccc(OCCNc2nccnn2)cc1` (stereo not drawn) [Compound 1398]: the pEC50 is 6.70 to 7.40.
Under `CCOC(=O)N1CCc2c([nH]c3ccc(Cl)cc23)C1c1ccc(OCCn2nc(N)cc2C)cc1` (stereo not drawn) [Compound 1399] stands more than 8.10; under `[H]/N=c1\scnn1CCOc1ccc(C2c3[nH]c4ccc(Cl)cc4c3CCN2C(=O)OCC)cc1` (stereo not drawn) [Compound 1400], more than 8.10.
The figure for `CCOC(=O)N1CCc2c([nH]c3ccc(Cl)cc23)C1c1ccc(OCCn2cc(C#N)c(N)n2)cc1` (stereo not drawn) [Compound 1401] is 7.40 to 8.10; for `[H]/N=C(\N)NCCOc1ccc(C2c3[nH]c4ccc(Cl)cc4c3CCN2C(=O)OCC#CC)cc1` (stereo not drawn) [Compound 1402] it is 6.00 to 6.70.
Under `[H]/N=c1\scnn1CCOc1ccc(C2c3[nH]c4ccc(Cl)cc4c3CCN2C(=O)OCC#CC)cc1` (stereo not drawn) [Compound 1403] stands more than 8.10; under `CC#CCOC(=O)N1CCc2c([nH]c3ccc(Cl)cc23)C1c1ccc(OCCn2cc(C(N)=O)c(N)n2)cc1` (stereo not drawn) [Compound 1404], 6.70 to 7.40; under `Cc1cc(NCCOc2ccc(C3c4[nH]c5ccc(Cl)cc5c4CCN3C(=O)OCC(C)C)cc2)on1` (stereo not drawn) [Compound 1405], 6.70 to 7.40.
`CC(C)COC(=O)N1CCc2c([nH]c3ccc(Cl)cc23)C1c1ccc(OCCOc2cc(N)n[nH]2)cc1` (stereo not drawn) [Compound 1406] showed a pEC50 of 6.70 to 7.40.
The figure for `[H]/N=c1\scnn1CCOc1ccc(C2c3[nH]c4ccc(Cl)cc4c3CCN2C(=O)OCC(C)C)cc1` (stereo not drawn) [Compound 1407] is more than 8.10; for `CC(C)COC(=O)N1CCc2c([nH]c3ccc(Cl)cc23)C1c1ccc(OCCn2cc(C#N)c(N)n2)cc1` (stereo not drawn) [Compound 1408] it is more than 8.10; for `CC(C)COC(=O)N1CCc2c([nH]c3ccc(Cl)cc23)C1c1ccc(OCCNc2ncc[nH]2)cc1` (stereo not drawn) [Compound 1409] it is 6.00 to 6.70.
Under `[H]/N=C(\N)NCCOc1ccc(C2c3[nH]c4ccc(Cl)cc4c3CCN2C(=O)OCCOC)cc1` (stereo not drawn) [Compound 1410] stands less than 6.00; under `COCCOC(=O)N1CCc2c([nH]c3ccc(Cl)cc23)C1c1ccc(OCCNc2cc(C)no2)cc1` (stereo not drawn) [Compound 1411], 6.00 to 6.70.
Consider `[H]/N=c1\scnn1CCOc1ccc(C2c3[nH]c4ccc(Cl)cc4c3CCN2C(=O)OCCOC)cc1` (stereo not drawn) [Compound 1412], for which the pEC50 is 7.40 to 8.10.
The figure for `CCOC(=O)N1CCc2c([nH]c3cc(C(F)(F)F)ccc23)C1c1ccc(OC)cc1` (stereo not drawn) [Compound 1423] is less than 6.00; for `COc1ccc(C2c3[nH]c4cc(C(F)(F)F)ccc4c3CCN2C(=O)Oc2ccc(F)cc2)cc1` (stereo not drawn) [Compound 1424] it is less than 6.00.
The figure for `COc1ccc(OC(=O)N2CCc3c([nH]c4cc(C(F)(F)F)ccc34)C2c2ccc(OC)cc2)cc1` (stereo not drawn) [Compound 1425] is less than 6.00; for `COc1ccc(C2c3[nH]c4c(C)cccc4c3CCN2C(=O)Oc2ccc(C)cc2)cc1` (stereo not drawn) [Compound 1426] it is less than 6.00; for `COc1ccc(OC(=O)N2CCc3c([nH]c4c(C)cccc34)C2c2ccc(OC)cc2)cc1` (stereo not drawn) [Compound 1427] it is less than 6.00.
In the case of `CCOC(=O)N1CCc2c([nH]c3c(C)cccc23)C1c1ccc(OC)cc1` (stereo not drawn) [Compound 1428], the pEC50 was less than 6.00.
`COc1ccc(C2c3[nH]c4c(C)cccc4c3CCN2C(=O)Oc2ccc(Cl)cc2)cc1` (stereo not drawn) [Compound 1429] showed a pEC50 of less than 6.00.
Take `CC#CCOC(=O)N1CCc2c([nH]c3c(C)cccc23)C1c1ccc(OC)cc1` (stereo not drawn) [Compound 1430]: the pEC50 is less than 6.00.
Under `COC(=O)N1CCc2c([nH]c3c(C)cccc23)C1c1ccc(OC)cc1` (stereo not drawn) [Compound 1431] stands less than 6.00; under `N=C1SCCN1CCCOc1ccc(C2c3[nH]c4ccc(Cl)cc4c3CCN2C(=O)OCCF)cc1` (stereo not drawn) [Compound 1432], 7.40 to 8.10; under `CCOC(=O)N1CCc2c([nH]c3ccc(Cl)cc23)C1c1ccc(OCCNc2ncncn2)cc1` (stereo not drawn) [Compound 1433], more than 8.10.
The figure for `CC#CCOC(=O)N1CCc2c([nH]c3ccc(Cl)cc23)C1c1ccc(OCCn2cc(C#N)c(N)n2)cc1` (stereo not drawn) [Compound 1434] is more than 8.10.
The figure for `[H]/N=C(\N)NCCOc1ccc(C2c3[nH]c4ccc(Cl)cc4c3CCN2C(=O)OCC(C)C)cc1` (stereo not drawn) [Compound 1435] is 6.00 to 6.70; for `CC(C)COC(=O)N1CCc2c([nH]c3ccc(Cl)cc23)C1c1ccc(OCCNc2ncncn2)cc1` (stereo not drawn) [Compound 1436] it is more than 8.10; for `COCCOC(=O)N1CCc2c([nH]c3ccc(Cl)cc23)C1c1ccc(OCCn2nc(N)cc2C)cc1` (stereo not drawn) [Compound 1437] it is 7.40 to 8.10.
As to `COCCOC(=O)N1CCc2c([nH]c3ccc(Cl)cc23)C1c1ccc(OCCn2cc(C#N)c(N)n2)cc1` (stereo not drawn) [Compound 1438], the pEC50 was 6.70 to 7.40.
The compound `CC#CCOC(=O)N1CCc2c([nH]c3cc(Cl)ccc23)C1c1ccc(OC)cc1` (stereo not drawn) [Compound 1443] showed a pEC50 of 6.00 to 6.70.
Regarding `COc1ccc(C2c3[nH]c4cc(Cl)ccc4c3CCN2C(=O)Oc2ccc(Cl)cc2)cc1` (stereo not drawn) [Compound 1444], the pEC50 is 6.70 to 7.40.
The figure for `CC#CCOC(=O)N1CCc2c([nH]c3cc(Br)ccc23)C1c1ccc(OC(F)F)cc1` (stereo not drawn) [Compound 1445] is 6.70 to 7.40; for `O=C(Oc1ccc(Cl)cc1)N1CCc2c([nH]c3cc(Br)ccc23)C1c1ccc(OC(F)F)cc1` (stereo not drawn) [Compound 1446] it is 6.70 to 7.40; for `COc1ccc(OC(=O)N2CCc3c([nH]c4cc(Br)ccc34)C2c2ccc(OC(F)F)cc2)cc1` (stereo not drawn) [Compound 1447] it is 6.70 to 7.40.
The figure for `O=C(OCCF)N1CCc2c([nH]c3cc(Br)ccc23)C1c1ccc(OC(F)F)cc1` (stereo not drawn) [Compound 1448] is 6.00 to 6.70.
The figure for `O=C(Oc1ccccc1Cl)N1CCc2c([nH]c3cc(Br)ccc23)C1c1ccc(OC(F)F)cc1` (stereo not drawn) [Compound 1449] is 6.00 to 6.70.
